Results on ten molecules are retold here after US11529350B2, “Tyrosine kinase non-receptor 1 (TNK1) inhibitors and uses thereof” (Sumitomo Pharma Oncology, Inc., priority 2019, dated 2022).

The test system of one assay is K562 cells. Description: In-vitro cell viability assay (CellTiter-Glo), K562. The assay is classed as cell-based. Conditions: Homo sapiens. As to the method:
(§1) Tnk1 is known to drive proliferation and survival of Hodgkin's lymphoma (HL) cells, such as K652 and L540 cell lines (Gu et al., Identification of activated Tnk1 kinase in Hodgkin's lymphoma, Leukemia 24: 861-65 ((2010)). Downregulation of Tnk1 inhibits cell growth and proliferation, and increases apoptosis. To study the individual test compounds in the context of HL cells, CellTiter-Glo® assays (Promega, Madison, Wis.) were performed according to the manufacturer's instructions. The CellTiter-Glo® assay system uses a thermostable luciferase to generate a stable “glow-type” luminescent signal while simultaneously inhibiting endogenous enzymes released during cell lysis (e.g., ATPases). As such, the assay provides a sensitive and stable luminescent output.
(§2) Reagent Preparation • 1. The CellTiter-Glo® Buffer was thawed and equilibrated to room temperature prior to use. • 2. The lyophilized CellTiter-Glo® Substrate was equilibrated to room temperature prior to use. • 3. An appropriate volume of CellTiter-Glo® Buffer was transferred into the amber bottle containing CellTiter-Glo® Substrate according the manufacturer's recommendation. The reconstituted lyophilized enzyme/substrate mixture formed the CellTiter-Glo® Reagent. • 4. The CellTiter-Glo® Reagent was mixed by gently vortexing, swirling or inverting the contents to obtain a homogeneous solution.
(§3) Protocol for the Cell Viability Assay • 1. A titration of the K652 or L540 cells was performed to determine the optimal number and ensure that the CellTiter-Glo® Assay was performed within the linear range. • 2. Opaque-walled multiwell plates (compatible with the luminometer) were prepared with K652 or L540 cells in culture medium, 100 μl per well for 96-well plates or 25 μl per well for 384-well plates. • 3. Control wells containing medium without cells were prepared to obtain a value for background luminescence. • 4. Test compound was added to experimental wells, and incubated according to culture protocol. • 5. The plate and its contents were equilibrated at room temperature for approximately 30 minutes.
(§4) Protocol for Generating an ATP Standard Curve • 1. 1 μM ATP was prepared in culture medium (100 μl of 1 μM ATP solution contains 10^−10 moles ATP). • 2. Serial tenfold dilutions of ATP in culture medium (1 μM to 10 nM; 100 μl contains 10^−10 to 10^−12 moles of ATP) were performed. • 3. A multiwell plate with varying concentrations of ATP standard in 100 μl medium (25 μl for a 384-well plate) was prepared. • 4. A volume of CellTiter-Glo® Reagent equal to the volume of ATP standard present in each well was added. • 5. Contents were mixed for 2 minutes on an orbital shaker. • 6. The plate was allowed to incubate at room temperature for 10 minutes to stabilize the luminescent signal. • 7. Luminescence was recorded.
A general note: ATP-based viability assays read luminescence as a measure of living cells.

A further assay deals with L540 cells. Description: In-vitro cell viability assay (CellTiter-Glo), L540. The following applies: Homo sapiens, L-540. In kind it is cell-based. As to the method: as §1, §2, §3, §4
In the next assay the target is T1, TNK1 (Homo sapiens, UniProt Q13470).
T1 sequence (Q13470 1-666): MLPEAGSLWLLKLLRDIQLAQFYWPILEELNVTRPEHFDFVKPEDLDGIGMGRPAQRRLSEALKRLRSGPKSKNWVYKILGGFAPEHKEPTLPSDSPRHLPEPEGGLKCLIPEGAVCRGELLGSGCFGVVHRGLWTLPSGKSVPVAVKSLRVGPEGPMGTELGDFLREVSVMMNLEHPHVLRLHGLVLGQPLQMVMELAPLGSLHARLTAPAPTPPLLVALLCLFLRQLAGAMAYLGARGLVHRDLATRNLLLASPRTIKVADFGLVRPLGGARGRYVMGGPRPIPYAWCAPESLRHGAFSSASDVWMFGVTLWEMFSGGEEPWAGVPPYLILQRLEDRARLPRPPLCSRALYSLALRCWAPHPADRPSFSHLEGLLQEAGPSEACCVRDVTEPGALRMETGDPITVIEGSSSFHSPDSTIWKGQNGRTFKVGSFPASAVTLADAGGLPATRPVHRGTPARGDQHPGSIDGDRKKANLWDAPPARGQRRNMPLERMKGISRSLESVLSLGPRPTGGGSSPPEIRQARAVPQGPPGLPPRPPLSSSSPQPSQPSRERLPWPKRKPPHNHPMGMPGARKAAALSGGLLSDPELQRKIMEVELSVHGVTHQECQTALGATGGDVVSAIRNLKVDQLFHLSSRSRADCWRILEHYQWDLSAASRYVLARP
Put plainly: RBC HotSpot Kinase Assay. The assay is classed as biochemical. Also on record: purchased Reaction Biology Corp., Malvern, Pa. The following applies: ATP 10 μM. As to the method: The RBC HotSpot Kinase assay (Reaction Biology Corp., Malvern, Pa.) was used to evaluate the ability of test compounds to modulate (e.g., inhibit) the enzymatic activity of human TNK1 (UniProt Accession No. Q13470) in the following reaction:
Reagent: Base Reaction buffer; 20 mM Hepes (pH 7.5), 10 mM MgCl2, 1 mM EGTA, 0.02% Brij35, 0.02 mg/ml BSA, 0.1 mM Na3VO4, 2 mM DTT, 1% DMSO. Required cofactors were added individually to each kinase reaction.
Compound handling: Test compounds were dissolved in 100% DMSO to specific concentration. The serial dilution was conducted by Integra Viaflo Assist in DMSO.
1. Prepared substrate (peptide substrate, poly[Glu:Tyr] (4:1), 0.2 mg/ml; ATP 10 μM) in freshly prepared Reaction Buffer;
2. Delivered any required cofactors to the substrate solution;
3. Delivered kinase (TNK1) into the substrate solution and gently mixed;
4. Delivered compounds in 100% DMSO into the kinase reaction mixture by Acoustic technology (Echo550; nanoliter range), incubated for 20 minutes at room temperature;
5. Delivered ^33P-ATP (specific activity 10 μCi/μl) into the reaction mixture to initiate the reaction;
6. Incubated for 2 hours at room temperature;
7. Detected radioactivity by filter-binding method;
8. Kinase activity data were expressed as the percent remaining kinase activity in test samples compared to vehicle (dimethyl sulfoxide) reactions. IC50 values and curve fits were obtained using Prism (GraphPad Software).

The structures appear in SMILES notation. pIC50: −log10 of the molar value.

On to `COc1cc(N2CCN(C)CC2)c(Cl)cc1Nc1ncc(Cl)c(Nc2cccnc2N2CCNC2=O)n1` [Example No. 21, 1-(3-((5-chloro-2-((5-chloro-2-methoxy-4-(4-methylpiperazin-1-yl)phenyl)amino)pyrimidin-4-yl)amino)pyridin-2-yl)imidazolidin-2-one], for which the IC50 (in general, the concentration that inhibits the measured activity by half) in the assay on K562 cells was no less than 6 µM; in the assay with L540 cells, 1.5 to 6 µM. For the same molecule, on TNK1, the pIC50 (as a rule, −log10 of the IC50, conventionally taken in molar units) was greater than 8.30.

For `CN1CCN(c2c(Cl)cc(Nc3ncc(Cl)c(Nc4cccnc4N4CCCC4=O)n3)c3ccccc23)CC1` [Example No. 18, 1-(3-((5-chloro-2-((3-chloro-4-(4-methylpiperazin-1-yl)naphthalen-1-yl)amino)pyrimidin-4-yl)amino)pyridin-2-yl)pyrrolidin-2-one], the IC50 in the assay on K562 cells is no less than 6 µM; in the assay with L540 cells it was less than 0.5 µM. On TNK1, the negative-log IC50 (pIC50) was greater than 8.30.

For `COc1cc(N2CCN(C)CC2)c(C)cc1Nc1ncc(Br)c(Nc2cccnc2N(C)C)n1` [compound 10, 5-bromo-N^4-(2-(dimethylamino)pyridin-3-yl)-N^2-(2-methoxy-5-methyl-4-(4-methylpiperazin-1-yl)phenyl)pyrimidine-2,4-diamine], the values for the half-maximal inhibitory concentration (IC50) with K562 cells and with L540 cells were no less than 6 µM and less than 0.5 µM, respectively. At TNK1, this molecule gave a pIC50 greater than 8.30.

`COc1cc(N2CCN(C)CC2)ccc1Nc1ncc(Cl)c(Nc2cccnc2N2CCCC2=O)n1` [compound 2, 1-(3-((5-chloro-2-((2-methoxy-4-(4-methylpiperazin-1-yl)phenyl)amino)pyrimidin-4-yl)amino)pyridin-2-yl)pyrrolidin-2-one]: the IC50 in the assay on K562 cells lay within 1.5 to 6 µM; in the assay on L540 cells, 0.5 to 1.5 µM. The molecule further gave a negative logarithm of the IC50 (pIC50) against TNK1 greater than 8.30.

In the assay on L540 cells, `CCOc1cc(N2CCN(C)CC2)ccc1Nc1ncc(Cl)c(Nc2cccnc2N(C)C)n1` [compound 3, 5-chloro-N^4-(2-(dimethylamino)pyridin-3-yl)-N^2-(2-ethoxy-4-(4-methylpiperazin-1-yl)phenyl)pyrimidine-2,4-diamine] yielded an IC50 of no less than 6 µM. At TNK1, this molecule showed a pIC50 of 7.30 to 7.82.

For `CN1CCN(c2ccc(Nc3ncc(Cl)c(Nc4cccnc4N(C)C)n3)cc2)CC1` [compound 5, 5-chloro-N^4-(2-(dimethylamino)pyridin-3-yl)-N^2-(4-(4-methylpiperazin-1-yl)phenyl)pyrimidine-2,4-diamine], the half-inhibitory concentration (IC50) lay in the range of 1.5 to 6 µM with K562 cells and 0.5 to 1.5 µM in the assay on L540 cells. In addition, on TNK1, the pIC50 was 7.82 to 8.30.

`COc1cc(N2CCN(C)CC2)c(Cl)cc1Nc1ncc(Cl)c(Nc2cccnc2N2CCCC2=O)n1` [Example No. 13, 1-(3-((5-chloro-2-((5-chloro-2-methoxy-4-(4-methylpiperazin-1-yl)phenyl)amino)pyrimidin-4-yl)amino)pyridin-2-yl)pyrrolidin-2-one]: the IC50 is 1.5 to 6 µM in the assay on K562 cells and less than 0.5 µM in the assay with L540 cells. For the same molecule, the negative-log IC50 (pIC50) against TNK1 is greater than 8.30.

For `CC(C)Oc1cc(N2CCN(C)CC2)ccc1Nc1ncc(Cl)c(Nc2cccnc2N(C)C)n1` [compound 4, 5-chloro-N^4-(2-(dimethylamino)pyridin-3-yl)-N^2-(2-isopropoxy-4-(4-methylpiperazin-1-yl)phenyl)pyrimidine-2,4-diamine], the 50% inhibitory concentration (IC50) was 1.5 to 6 µM with K562 cells and no less than 6 µM in the assay with L540 cells. Also, at TNK1, the negative logarithm of the IC50 (pIC50) was 7.30 to 7.82.

Regarding `COc1cc(N2CCN(C)CC2)c(C)cc1Nc1ncc(Cl)c(Nc2cccnc2N2CCNC2=O)n1` [compound 9, 1-(3-((5-chloro-2-((2-methoxy-5-methyl-4-(4-methylpiperazin-1-yl)phenyl)amino)pyrimidin-4-yl)amino)pyridin-2-yl)imidazolidin-2-one], the concentration for half-maximal inhibition (IC50) was no less than 6 µM in the assay with K562 cells and less than 0.5 µM in the assay on L540 cells. At TNK1, this molecule gave a negative logarithm of the IC50 (pIC50) greater than 8.30.

Regarding `CN1CCN(c2ccc(Nc3ncc(Cl)c(Nc4cccnc4N4CCCC4=O)n3)cc2)CC1` [compound 1, 1-(3-((5-chloro-2-((4-(4-methylpiperazin-1-yl)phenyl)amino)pyrimidin-4-yl)amino)pyridin-2-yl)pyrrolidin-2-one], the half-maximal inhibitory concentration (IC50) in the assay with K562 cells is less than 0.5 µM; with L540 cells, 0.5 to 1.5 µM. The molecule also had a pIC50 against TNK1 greater than 8.30.
